In patent US7351701B2, “Therapeutic compounds” (Cancer Research Technology Limited, priority 2004, dated 2008):
Where two headings read alike, the source gives them in different places.

Tests used:
VC8 cell line [1] = conditions: hamster, 24 h
Method: (§3) All cell lines in this study were grown in Dulbecco's modified Eagle's Medium (DMEM) with 10% Foetalbovine serum and penicillin (100 U/ml) and steptomycin sulphate (100 μg/mL) at 37° C. under an atmosphere containing 5% CO2.
(§4) The cells were harvested by trypsinisation, counted and seeded at varying densities in 10 cm dishes in fresh medium in the absence of drug for colony formation.
(§5) 7-10 days later the dishes were fixed with methanol:acetic acid 3:1 and stained with 0.4% crystal violet.
(§6) Colonies were counted and the survival relative to 1% DMSO control treated cells calculated.

VC8 cell line [2] = test: Clonogenic survival assay, VC8 cell line (lacks BRCA2)
Method: as §3, §4, §5, §6

PARP [3] = target: T1, PARP (Mus musculus, UniProt P11103); test: PARP activity assay in digitonin-permeabilised L1210 cells; type: cell-based; set-up: endogenous in cells; host or cells: L1210 cells, digitonin-permeabilised; conditions: L1210 cells permeabilised prior to adding the inhibitor
T1 sequence (P11103 whole entry): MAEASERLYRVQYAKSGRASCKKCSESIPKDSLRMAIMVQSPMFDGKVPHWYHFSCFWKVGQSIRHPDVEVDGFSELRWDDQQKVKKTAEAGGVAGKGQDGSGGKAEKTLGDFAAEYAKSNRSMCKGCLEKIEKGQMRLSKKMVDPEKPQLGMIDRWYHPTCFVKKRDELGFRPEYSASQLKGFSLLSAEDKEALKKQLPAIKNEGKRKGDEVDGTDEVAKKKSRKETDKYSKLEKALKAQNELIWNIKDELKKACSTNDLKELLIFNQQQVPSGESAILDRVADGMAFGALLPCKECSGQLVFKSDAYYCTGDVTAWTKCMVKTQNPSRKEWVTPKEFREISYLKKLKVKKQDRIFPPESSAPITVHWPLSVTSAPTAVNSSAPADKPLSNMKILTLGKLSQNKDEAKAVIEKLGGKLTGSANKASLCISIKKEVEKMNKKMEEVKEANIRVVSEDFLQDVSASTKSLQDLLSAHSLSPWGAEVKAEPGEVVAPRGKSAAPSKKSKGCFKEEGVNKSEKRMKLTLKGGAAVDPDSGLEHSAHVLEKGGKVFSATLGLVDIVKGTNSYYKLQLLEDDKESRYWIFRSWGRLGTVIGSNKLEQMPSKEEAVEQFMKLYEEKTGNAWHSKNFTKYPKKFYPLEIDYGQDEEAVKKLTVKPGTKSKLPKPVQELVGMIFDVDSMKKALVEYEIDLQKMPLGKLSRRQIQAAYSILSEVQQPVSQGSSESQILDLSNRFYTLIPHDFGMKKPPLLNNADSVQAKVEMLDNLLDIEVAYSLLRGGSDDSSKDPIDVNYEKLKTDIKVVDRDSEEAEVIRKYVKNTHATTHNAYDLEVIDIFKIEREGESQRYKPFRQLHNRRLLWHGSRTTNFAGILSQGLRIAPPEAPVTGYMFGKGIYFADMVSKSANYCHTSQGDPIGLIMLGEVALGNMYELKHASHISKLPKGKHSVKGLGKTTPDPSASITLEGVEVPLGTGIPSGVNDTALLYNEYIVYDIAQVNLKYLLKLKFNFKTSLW
Method: (§1) Exponentially growing cells were exposed to 1% DMSO in culture medium (control) or a compound of formula I or III in 1% DMSO at the concentrations indicated in FIG. 4 to cells permeabilised with digitonin, or intact cells for 20 minutes prior to washing and digitonin-permeabilization. PARP activity was measured by incorporation of a [32P] labelled NAD+ substrate into TCA precipitateble polymers after stimulation by the addition of a blunt-ended oligonucleotide and compared with non-oligonucleotide-stimulated cells. PARP activity in tumour homogenates (1 in 40 in isotonic buffer) from formula III-treated mice was measured in the same way. PARP activity in pbls and tumour homogenates from formula I-phospate treated mice was measured by immunological detection of polymer using the 10H antibody. Briefly, tumour homogenates diluted to up to 1:1000 in isotonic buffer were incubated with 350 μM NAD for 6 min and blotted onto nitrocellulose membrane. The poly(ADP-ribose) (PAR) polymer formation was quantified by chemiluminescence detection using a Fuji LAS3000 UV Illuminator by reference to serial dilutions of a PAR standard, following incubation with 10H antibody to PAR and a secondary anti-mouse antibody.

PARP [4] = target: T1, PARP; test: PARP activity assay in intact L1210 cells (20 minutes exposure before permeabilisation); type: cell-based; set-up: endogenous in cells; host or cells: L1210 cells, digitonin-permeabilised; conditions: exposed 20 minutes prior to permeabilisation
Method: as §1

IrS ISF cell line = test: cells; type: cell-based; conditions: Cricetulus griseus, 24 h, read-out: LC50 (the concentration of the active component that kills 50% of the cells)
Text: The AA8, irs1SF and CXR3 cell lines were provided by Larry Thompson.
Toxicity Assay—Clonogenic Survival Assay

[5] = Plasma and tumour concentrations in mice bearing SW620 xenografts after intraperitoneal administration; type: in vivo
PARP [6] = target: T2, PARP (Homo sapiens, UniProt P09874); test: PARP activity in SW620 xenograft tumour homogenates from formula III-treated mice ([32P] NAD+ incorporation); type: in vivo; conditions: 10 mg/kg intraperitoneal
T2 construct: PARP activity in tumour homogenates (1 in 40 in isotonic buffer) from formula III-treated mice; from tissue; host or cells: homogenates of SW620 xenograft tumours grown in mice
T2 sequence (P09874 whole entry): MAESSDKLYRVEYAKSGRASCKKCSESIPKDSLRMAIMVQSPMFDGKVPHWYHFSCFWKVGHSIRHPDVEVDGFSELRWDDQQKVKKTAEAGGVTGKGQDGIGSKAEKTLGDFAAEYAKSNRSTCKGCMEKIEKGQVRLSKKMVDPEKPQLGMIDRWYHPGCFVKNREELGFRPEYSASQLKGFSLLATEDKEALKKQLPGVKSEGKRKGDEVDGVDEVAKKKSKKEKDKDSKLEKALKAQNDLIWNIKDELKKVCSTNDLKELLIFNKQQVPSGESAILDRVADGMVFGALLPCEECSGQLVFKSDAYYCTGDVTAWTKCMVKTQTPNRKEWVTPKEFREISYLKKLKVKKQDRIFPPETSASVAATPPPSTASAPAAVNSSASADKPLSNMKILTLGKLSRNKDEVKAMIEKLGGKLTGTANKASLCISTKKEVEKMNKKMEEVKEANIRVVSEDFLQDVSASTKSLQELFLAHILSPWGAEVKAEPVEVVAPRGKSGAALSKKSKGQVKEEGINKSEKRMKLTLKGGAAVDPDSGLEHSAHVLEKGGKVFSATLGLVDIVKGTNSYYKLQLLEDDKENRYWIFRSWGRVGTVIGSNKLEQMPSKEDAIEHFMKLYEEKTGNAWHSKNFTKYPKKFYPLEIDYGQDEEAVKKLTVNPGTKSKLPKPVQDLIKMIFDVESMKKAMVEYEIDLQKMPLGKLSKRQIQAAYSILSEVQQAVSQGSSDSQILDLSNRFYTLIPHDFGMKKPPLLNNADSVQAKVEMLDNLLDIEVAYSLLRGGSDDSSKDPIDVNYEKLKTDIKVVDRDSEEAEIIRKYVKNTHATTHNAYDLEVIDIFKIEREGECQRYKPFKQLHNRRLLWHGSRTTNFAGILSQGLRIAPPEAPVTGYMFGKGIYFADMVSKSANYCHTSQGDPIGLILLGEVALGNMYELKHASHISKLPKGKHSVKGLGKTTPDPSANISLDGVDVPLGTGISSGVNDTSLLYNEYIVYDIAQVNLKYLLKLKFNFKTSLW
Method: FIG. 7 is a bar chart showing the pharmacokinetics and pharmacodynanics with formula III in mice bearing SW620 xenografts;
as §1, with “antibody. […]” for “antibody. Briefly, tumour homogenates diluted to up to 1:1000 in isotonic buffer were incubated with 350 μM NAD for 6 min and blotted onto nitrocellulose membrane.”, “antibody. The results were standardised by reference to the measured protein content of the homogenate.” for “antibody.”

SW620 xenografts = test: Tumour growth (median relative tumour volume) in mice bearing SW620 xenografts; type: in vivo
Text: FIG. 8 is a graph showing the tumour growth (median relative tumour volume) in mice bearing SW620 xenografts following treatment with formula III in combination with temozolomide (TMZ) and with TMZ alone;
FIG. 9 is a graph showing the tumour growth (median relative tumour volume) of mice bearing SW620 xenografts following treatment with formula I-phosphate in combination with temozolomide (TMZ) and with formula I-phosphate and TMZ alone;
However, shortly after this time the tumour size begins to increase.

[7] = Solubility of the phosphate salt; type: physicochemical; conditions: phosphate salt vs parent compound
PARP [8] = target: T2, PARP; test: PARP activity in SW620 xenograft tumour homogenates after formula I-phosphate (10H antibody detection); type: in vivo, mice
Method: (§2) FIG. 6 is a pair of bar charts showing the blood and tumour pharmacokinetics and pharmacodynamics with formula I-phosphate at 1 mg/kg (upper) and 10 mg/kg (lower) in mice bearing SW620 xenografts;
as §1, with “Briefly, tumour homogenates diluted to up to 1:1000 in isotonic buffer were incubated with 350 μM NAD for 6 min and blotted onto nitrocellulose membrane.” left out

PARP [9] = target: T1, PARP; test: PARP activity in mouse peripheral blood lymphocytes after formula I-phosphate (10H antibody detection); type: in vivo; set-up: PARP activity in pbls and tumour homogenates from formula I-phospate treated mice; from tissue; host or cells: peripheral blood lymphocytes of treated mice; conditions: 10 mg/kg intraperitoneal, up to 24 hr
Method: as §2
as §1, with “Briefly, tumour homogenates diluted to up to 1:1000 in isotonic buffer were incubated with 350 μM NAD for 6 min and blotted onto nitrocellulose membrane.” left out

[10] = 10 mg/kg intraperitoneal, SW620 xenograft

For `CNCc1ccc(-c2[nH]c3cc(F)cc4c3c2CCNC4=O)cc1` [Formula I], the CC50 (VC8 cell line [1]) was 0.012 µM, the “LC90 (concentration of active component that kills 90% of the cells)” value (VC8 cell line [2]) was 0.027 µM and the “PARP inhibitory activity, formula I compared with formula III” value (PARP [3]) was “no difference”. The “PARP inhibitory activity, formula I compared with formula III” value (PARP [4]) was “more potent in intact cells”.
For `CN(C)Cc1ccc(-c2nc3cccc4c3n2CCNC4=O)cc1` [Formula III], the CC50 (IrS ISF cell line) was 0.1 µM, the distribution to tumour [5, 10] was “distributes well to the tumour” and the “retention in tumour relative to plasma with time” value [5, 10] was “preferentially retained with time”. The “PARP activity in the tumour” value (PARP [6]) was “inhibits PARP activity in the tumour”, the “time over which tumour shrinks to an undetectable size” value (SW620 xenografts; formula III 5 mg/kg daily×5 with temozolomide 68 mg/kg daily×5) was “around 15 days” and the “further time tumour size remains undetectable” value (SW620 xenografts; formula III 5 mg/kg daily×5 with temozolomide 68 mg/kg daily×5, then begins to increase) was 50 days. The “tumour outcome at autopsy” value (SW620 xenografts; formula III 15 mg/kg daily×5 with temozolomide, end of the experiment) was “complete tumour regression”, the “further time tumour size remains undetectable” value (SW620 xenografts; formula III 15 mg/kg daily×5 with temozolomide, until the end of the experiment) was 80 days and the “LC90 (concentration of active component that kills 90% of the cells)” value (VC8 cell line [2]) was 1.2 µM. For the same compound, the CC50 (VC8 cell line [2]; read-out: LC50) was 0.043 µM and the “PARP inhibitory activity, formula I compared with formula III” value (PARP [3]) was “no difference”.
With `CNCc1ccc(-c2[nH]c3cc(F)cc4c3c2CCNC4=O)cc1.O=P(O)(O)O` [formula I-phosphate] the “solubility relative to formula I” value [7] was “increases the solubility”, the “levels of formula I in plasma and tumour” value ([5]; 1 mg/kg intraperitoneal, compared with 10 mg/kg) was “lower levels” and the “plasma concentration of parent compound formula I” value ([5]; 10 mg/kg intraperitoneal, 24 hr after administration) was “none could be detected”. For the same compound, the “tumour concentration of parent compound formula I” value ([5]; 10 mg/kg intraperitoneal, 24 hr after administration, SW620 xenograft) was “significant levels were detectable”, the “plasma concentration of parent compound formula I” value ([5]; 10 mg/kg intraperitoneal, thirty minutes after administration) was “highlevels” and the “tumour concentration of parent compound formula I” value ([5]; 10 mg/kg intraperitoneal, thirty minutes after administration, SW620 xenograft) was “highlevels”. For the same compound, the “effect on PARP activity” value (PARP [8]; 1 mg/kg intraperitoneal, compared with 10 mg/kg, pbls and tumour) was “less pronounced effect”, the “PARP activity in tumour” value (PARP [8]; 10 mg/kg intraperitoneal, up to 24 hr, SW620 xenograft) was less than 50 % control and the “PARP activity in pbls” value (PARP [9]) was less than 50 % control.
